Assay results: US20090036540A1, “Guanylhydrazones in Methods of Treatment or Diagnosis as Modulators of Signal Transduction” (Cytokine PharmaSciences, Inc., priority 2003, published 2009)

Key:
[1] = tested on: 4/4 macrophages; assay: Western blot of LPS-stimulated 4/4 macrophages for MAPK signaling molecules; assay type: cell-based, murine; conditions: 0.1 and 1 μM, 1 hour pre-incubation, LPS 100 ng/ml 15 minutes
Procedure: 4/4 macrophages were used for in vitro experiments and western blot analysis. An in vitro kinase assay was performed to reconfirm findings obtained with western blotting. […] 4/4 macrophages were grown to 70% confluence, pre-incubated for 1 hour with Semapimod (0.1 and 1 μM) and stimulated with LPS (100 ng/ml) for 15 minutes. Cells were harvested in sample buffer and whole cell lysates were loaded onto 10% SDS-PAGE and subsequently transferred to a PVDF membrane. Blots were stained with phospho-specific antibodies for various MAPK signaling molecules. […] Importantly, pRaf protein levels and pPak, upstream of Raf, were not affected due to Semapimod incubation. […] FIG. 6 Western blot: Reduced pP38, pJnk, pErk in 4/4 macrophages treated with Semapimod (1 and 0.1 μM) in LPS present conditions was seen. Moreover, the phosphorylation status of MKK4/7 (upstream of Jnk), and Mek1/2 (upstream of Erk) was affected due to Semapimod treatment. pRaf expression was not influenced by Semapimod. To test for equal loading, western blots were analyzed for actin expression. Similar results were obtained in three independent experiments.

[2] = tested on: Raf kinase; assay: Raf in vitro kinase assay (pMek immunoblot); assay type: biochemical; conditions: active Raf kinase, 1 μM Semapimod for 5 and 10 minutes
Procedure: A commercially available in vitro kinase kit (Upstate, cat#: 17-360) was used to study the direct effect of Semapimod on Raf kinase activity. […] Furthermore, active Raf together with Mek, without Semapimod, served as a positive control. Active Raf without the Mek-substrate, left untreated, served as a negative control. The in vitro kinase reaction was performed at 30 C.° for 20 minutes. Sample buffer was added to terminate the reaction, and loaded on […] SDS-PAGE. The immunoblot was analyzed for pMek expression.
Pan-Raf protein expression was analyzed to test for equal loading. Two experiments were performed and similar results were obtained.

[3] = tested on: 4/4 macrophages; assay: Cytotoxic effect in 4/4 macrophages; assay type: cell-based, murine; conditions: Semapimod concentrations ≦1 μM
[4] = CRP serum levels of Crohn's disease patients in the Semapimod pilot study; assay type: in vivo, human
Text: FIGS. 9A and B show the IHC analysis of Crohn's disease patients who participated in the Semapimod pilot study. […] CRP levels of patient #12 were not affected by Semapimod (e.g. nonresponder). Importantly, pMek1/2 expression was also not affected by Semapimod in this nonresponder. […] This finding correlates with the low CRP levels at baseline (FIG. 9B).

[5] = steroid- and infliximab-resistant Crohn's disease; cited from earlier work

## C/C(=N\NC(=N)N)c1cc(NC(=O)CCCCCCCCC(=O)Nc2cc(/C(C)=N/NC(=N)N)cc(/C(C)=N/NC(=N)N)c2)cc(/C(C)=N/NC(=N)N)c1 [Semapimod]
[1]
  expression of pMKK4/7: reduced expression
  expression of pMek1/2: reduced expression
  pPak, upstream of Raf: not affected
  pRaf protein levels: not affected
  phosphorylated-Erk1/2: decrease
  phosphorylated-Jnk: decrease
  phosphorylated-P38: decrease
[2]
  Raf kinase activity: inhibited
[2]; inactive Mek-substrate
  pMek1/2 expression in in vitro kinase assay: reduced pMek1/2 expression
[3]
  cytotoxic effect: did not have a cytotoxic effect
[4]; Crohn's disease patients n=5, all responders
  CRP, responders: CRP decrease
[4]; patient #12
  CRP levels, nonresponder: not affected
[5]
  clinical effect in Crohn's disease: induces clinical remission and endoscopal healing
